Data taken from PMC3853024, “Aromatase inhibitor treatment with an intravaginal device and its effect on pre-ovulatory ovarian follicles in a bovine model” (Reproductive Biology and Endocrinology : RB&E, 2013).

Key:
Assay type in all cases: in vivo, cattle (Hereford-cross beef heifers)
[1] = tested on: pre-ovulatory ovarian follicles; assay: Ovarian ultrasonography in heifers treated with a letrozole-containing intravaginal device; conditions: for Device placement to ovulation: inserted Day 1, n=15, mean±SEM
Description: Hereford-cross beef heifers (n=30), 15 to 20 months of age and weighing between 235 and 405 kg (average 336 kg), were chosen from a herd of 51 heifers maintained in outdoor pens at the University of Saskatchewan Goodale Research Farm (52° North and 106° West). Heifers were fed alfalfa/grass hay and concentrate to gain approximately 1.3 Kg per day and had water ad libitum during the experimental period from October to December. Heifers were initially examined by transrectal ultrasonography (MyLab5 VET, Canadian Veterinary Imaging, Georgetown, Ontario Canada) to detect the presence of a CL (i.e., confirm post-pubertal status; [18]. Animal procedures were performed in accordance with the Canadian Council on Animal Care and were approved by University of Saskatchewan Protocol Review Committee.
(§1) Heifers in which a CL was detected were given two luteolytic doses of PGF (12 h apart) and monitored by ultrasonography for ovulation. Five to eight days later, the two largest ovarian follicles were ablated by transvaginal ultrasound-guided follicular aspiration to synchronize follicular wave emergence which was expected to occur 1 to 1.5 days later. Prostaglandin (500 μg cloprostenol, Estrumate, Schering-Plough Animal Health, Pointe-Claire, QC, Canada) was given intramuscularly at 60 and 72 h after follicular ablation to induce regression of the CL and shift from a non-ovulatory to an ovulatory follicular wave. At the time of follicular wave emergence (Day 0; i.e., 1.5 days after follicle ablation), heifers were assigned randomly to two groups and given an intravaginal device containing 1 g of letrozole (letrozole group, n=15) or a placebo (letrozole-free) intravaginal device (control group, n=15). Devices were inserted on Day 1 and were kept in place until Day 7 or until ovulation was detected, which ever occurred first.
Intravaginal devices were prepared using a Cue-Mate spine (Bioniche Animal Health, Bellville, ON, Canada) assembled with two blank (progesterone-free) silicone pods that were coated with a gel-based vehicle containing letrozole or vehicle only (control). The vehicle contained the following (all ingredients % w/w): letrozole 10%, gelatin 20% (Gelatin type B, Fisher Scientific, Pittsburgh, PA, USA), polymer 65% (prepared by mixing distilled water 68%, Poloxamer 188 12% and Poloxamer 407 20%, both from Spectrum Chemical, New Brunswick, NJ, USA) and distilled water 5%.
The observations from ultrasound examinations were recorded on a sketch sheet in which each ovary and its structures (CL and follicles ≥ 4 mm in diameter) were represented by size and location. Ovulation was defined as the disappearance of any follicle ≥8 mm between two consecutive daily examinations and was confirmed by the subsequent development of a CL [18]. Follicular wave emergence was defined as occurring 1.5 days after follicular ablation. The dominant follicle of a wave was defined as the largest antral follicle of that wave.
Statistical analyses were done using the Statistical Analysis System software package (SAS Learning Edition 9.1, 2006; SAS Institute Inc., Cary, NC, USA). Time-series data (hormone concentrations, follicle and CL diameter profiles) were analyzed by repeated measures using the PROC MIXED procedure. The main effects were treatment (letrozole and control), time, and their interactions (noted in figures as treatment, day and treat*day, respectively). Single-point measurements (dominant follicle diameter at device placement, maximum diameter of extant dominant follicle, intervals from ablation to wave emergence, and from device placement to ovulation) were analyzed by t-tests. Individual time point comparisons between treatment groups were performed using least significant difference test. Significance was defined as P ≤ 0.05.

plasma estradiol = assay: Plasma estradiol concentration (radioimmunoassay) in treated heifers
Description: as §1, with “At the time of follicular wave emergence (Day 0; i.e., 1.5 days after follicle ablation), heifers were assigned randomly to two groups and given an intravaginal device containing 1 g of letrozole (letrozole group, n=15) or a placebo (letrozole-free) intravaginal device (control group, n=15).” left out, “first. […]” for “first.”
Plasma concentrations of estradiol were determined using a commercial radioimmunoassay kit (Double Antibody Estradiol; Diagnostic Products Corp., Los Angeles, CA, USA). […]
(§2) Statistical analyses were done using the Statistical Analysis System software package (SAS Learning Edition 9.1, 2006; SAS Institute Inc., Cary, NC, USA). Time-series data (hormone concentrations, follicle and CL diameter profiles) were analyzed by repeated measures using the PROC MIXED procedure. […]

plasma FSH = assay: Plasma FSH concentration (radioimmunoassay) in treated heifers; conditions: n=15, P=0.1
Description: as §1, with “At the time of follicular wave emergence (Day 0; i.e., 1.5 days after follicle ablation), heifers were assigned randomly to two groups and given an intravaginal device containing 1 g of letrozole (letrozole group, n=15) or a placebo (letrozole-free) intravaginal device (control group, n=15).” left out, “first. […]” for “first.”
Plasma FSH concentrations were determined in duplicate using a double-antibody radioimmunoassay using NIDDK-anti-oFSH-1 primary antibody and expressed as USDA bovine FSH-Il units. […] All samples were analyzed in a single assay; the intra-assay coefficients of variation were 7.9 and 6.5%, for low (mean, 2.4 ng/mL) and high reference samples (mean 4.9 ng/mL), respectively. […]

plasma LH = assay: Plasma LH concentration (radioimmunoassay) in treated heifers; conditions: n=15, P=0.61
Description: as §1, with “At the time of follicular wave emergence (Day 0; i.e., 1.5 days after follicle ablation), heifers were assigned randomly to two groups and given an intravaginal device containing 1 g of letrozole (letrozole group, n=15) or a placebo (letrozole-free) intravaginal device (control group, n=15).” left out, “first. […]” for “first.”
Plasma LH concentrations were determined in duplicate using a double-antibody radioimmunoassay (NIDDK-bLH4). […] All samples were analyzed in a single assay; the intra-assay coefficient of variation was 11.4% for low reference samples (mean, 0.9 ng/mL) and 12.2% for high reference samples (mean, 2.1 ng/mL).
as §2

Compound: N#Cc1ccc(C(c2ccc(C#N)cc2)n2cncn2)cc1 [Letrozole]
- Dominant follicle diameter at device placement ([1]; Day 1, at device insertion (baseline), n=15, mean±SEM): 4.2±0.46 mm
- Corpus luteum diameter profile versus control ([1]; after post-treatment ovulation, n=15, P=0.82): not different
- Number of ovulations ([1]; all heifers, regardless of treatment): Single ovulation
- Day-to-day diameter profile of the dominant follicle versus control ([1]; during treatment, n=15, P=0.05): larger
- Device placement to ovulation ([1]; intravaginal device containing 1 g letrozole): 6.1 ± 0.25 days
- Device placement to ovulation ([1]; intravaginal device containing 1 g letrozole, listed as letrozole): 6.1 ± 0.25 days
- Delay of ovulation versus control ([1]; intravaginal device containing 1 g letrozole, n=15): 24 h
- Max. diameter of extant dominant follicle ([1]; intravaginal device containing 1 g letrozole, n=15, mean±SEM): 14.6±0.51 mm
- Max. diameter of extant dominant follicle ([1]; intravaginal device containing 1 g letrozole, n=15, mean±SEM, listed as letrozole): 14.6+/-0.51 mm
- Delay of preovulatory rise in estradiol versus control (plasma estradiol; n=15): 24 h
- Plasma estradiol concentrations versus control (plasma estradiol; n=15, P=0.04): lower
- Plasma FSH concentrations versus control (plasma FSH): tendency for lower
- Mean plasma LH concentrations versus control (plasma LH): did not differ
